In patent US20230233569A1 (Revolution Medicines, Inc., priority 2020, published 2023):
“And” between values parts separate entries of the source, which are not always exact repeats. Identical values can stand only once. Like-named read-outs stand apart in the source and are kept apart here.

Tests used:
NCI-H358 (K-Ras G12C) = test: CellTiter-Glo cell viability assay, 5-day treatment; type: cell-based; conditions: Homo sapiens
Procedure: Protocol: CellTiter-Glo® Cell Viability Assay
Note—The following protocol describes a procedure for monitoring cell viability of K-Ras mutant cancer cell lines in response to a compound of the invention. Other RAS isoforms may be employed, though the number of cells to be seeded will vary based on cell line used.
(§1) Test compounds (132.5 nL) were directly dispensed into the assay plates containing cells. […] On day 5, assay plates and their contents were equilibrated to room temperature for approximately 30 minutes. […] Luminescence was measured using the PerkinElmer Enspire. Data were normalized by the following: (Sample signal/Avg. DMSO)*100. The data were fit using a four-parameter logistic fit.
as §1, with “nl)” for “nL)”

KRAS G12C = KRAS G12C (Homo sapiens, UniProt P01116+P62937, G12C); test: Disruption of BRAF RBD interaction with Ras (FRET / MOA assay, with Cyclophilin A); type: biochemical
Excerpt: (§2) This protocol may also be executed substituting other Ras proteins or nucleotides.
(§3) The purpose of this biochemical assay was to measure the ability of test compounds to facilitate ternary complex formation between a nucleotide-loaded K-Ras isoform and Cyclophilin A; the resulting ternary complex disrupts binding to a BRAF^RBD construct, inhibiting K-Ras signaling through a RAF effector. Data is reported as IC50 values.
(§4) Compound was present in plate wells as a 10-point 3-fold dilution series starting at a final concentration of 30 μM. After incubation at 25° C. for 3 hours, a mixture of Anti-His Eu-W1024 and anti-GST allophycocyanin was then added to assay sample wells at final concentrations of 10 nM and 50 nM, respectively, and the reaction incubated for an additional 1.5 hours. […] Compounds that facilitate disruption of a K-Ras:RAF complex were identified as those eliciting a decrease in the TR-FRET ratio relative to DMSO control wells.
as §3, with “BRAF^RBDD” for “BRAF^RBD”

KRAS G12D = KRAS G12D (Homo sapiens, UniProt P01116+P62937, G12D); test: as above; type: biochemical
Excerpt: as §2, §3, §4
as §3, with “BRAF^RBDD” for “BRAF^RBD”

KRAS G12S = KRAS G12S (Homo sapiens, UniProt P01116+P62937, G12S); test: as above; type: biochemical
Excerpt: as §2, §3, §4
as §3, with “BRAF^RBDD” for “BRAF^RBD”

KRAS G12V = KRAS G12V (Homo sapiens, UniProt P01116+P62937, G12V); test: as above; type: biochemical
Excerpt: as §2, §3, §4
as §3, with “BRAF^RBDD” for “BRAF^RBD”

KRAS G13C = KRAS G13C (Homo sapiens, UniProt P01116+P62937, G13C); test: as above; type: biochemical
Excerpt: as §2, §3, §4
as §3, with “BRAF^RBDD” for “BRAF^RBD”

KRAS G13D = KRAS G13D (Homo sapiens, UniProt P01116+P62937, G13D); test: as above; type: biochemical
Excerpt: as §2, §3, §4
as §3, with “BRAF^RBDD” for “BRAF^RBD”

KRAS WT = KRAS WT (Homo sapiens, UniProt P01116+P62937); test: as above; type: biochemical
Excerpt: as §2, §3, §4
as §3, with “BRAF^RBDD” for “BRAF^RBD”

NRAS G12C = NRAS G12C (Homo sapiens, UniProt P01111+P62937, G12C); test: as above; type: biochemical
Excerpt: as §2, §3, §4
as §3, with “BRAF^RBDD” for “BRAF^RBD”

[1] = NCI-H358, 120 h, 5-day treatment, read-out: H358 Cell Viability assay data (K-Ras G12C, IC50)
[2] = read-out: KRAS G12C FRET data, IC50
[3] = read-out: KRAS G12D FRET data, IC50
[4] = read-out: KRAS G12S FRET data, IC50
[5] = KRAS G12V, read-out: KRAS G12V FRET data IC50
[6] = read-out: KRAS G13C FRET data, IC50
[7] = KRAS G13D, read-out: KRAS G13D FRET data IC50
[8] = KRAS WT, read-out: KRAS WT FRET data IC50
[9] = NRAS G12C, read-out: NRAS G12C FRET data IC50

Sequence of KRAS G12V (P01116 1-169 isoform P01116-2 G12V limits assumed): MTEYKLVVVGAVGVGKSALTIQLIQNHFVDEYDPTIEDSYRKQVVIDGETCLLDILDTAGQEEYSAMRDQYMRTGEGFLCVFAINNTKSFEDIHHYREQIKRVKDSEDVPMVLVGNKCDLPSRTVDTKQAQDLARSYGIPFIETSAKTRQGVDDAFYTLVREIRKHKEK
Sequence of KRAS G12V (P62937 whole entry): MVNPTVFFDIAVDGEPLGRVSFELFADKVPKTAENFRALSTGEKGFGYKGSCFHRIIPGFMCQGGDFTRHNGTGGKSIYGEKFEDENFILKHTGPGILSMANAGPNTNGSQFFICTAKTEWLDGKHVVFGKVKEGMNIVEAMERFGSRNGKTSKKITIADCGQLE
Sequence of KRAS G13D (P01116 1-169 isoform P01116-2 G13D limits assumed): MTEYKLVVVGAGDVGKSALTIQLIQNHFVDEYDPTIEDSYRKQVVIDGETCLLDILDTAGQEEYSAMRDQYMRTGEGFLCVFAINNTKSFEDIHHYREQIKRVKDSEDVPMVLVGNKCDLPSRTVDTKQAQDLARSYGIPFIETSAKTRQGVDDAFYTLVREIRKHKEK
Sequence of KRAS G13D (P62937 whole entry): as the sequence (P62937 whole entry) above
Sequence of KRAS WT (P01116 1-169 isoform P01116-2 limits assumed): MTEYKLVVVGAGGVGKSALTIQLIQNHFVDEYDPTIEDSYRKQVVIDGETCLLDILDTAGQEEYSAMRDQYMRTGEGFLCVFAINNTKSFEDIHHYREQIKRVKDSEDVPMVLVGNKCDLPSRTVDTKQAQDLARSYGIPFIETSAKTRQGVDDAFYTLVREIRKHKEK
Sequence of KRAS WT (P62937 whole entry): as the sequence (P62937 whole entry) above
Sequence of KRAS G12C (P01116 1-169 isoform P01116-2 G12C): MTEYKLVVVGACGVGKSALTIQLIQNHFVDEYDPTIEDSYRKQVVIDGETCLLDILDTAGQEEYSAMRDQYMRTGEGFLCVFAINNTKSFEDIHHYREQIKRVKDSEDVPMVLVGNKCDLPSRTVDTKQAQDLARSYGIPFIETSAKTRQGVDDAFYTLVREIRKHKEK
Sequence of KRAS G12C (P62937 whole entry): as the sequence (P62937 whole entry) above
Sequence of KRAS G12D (P01116 1-169 isoform P01116-2 G12D limits assumed): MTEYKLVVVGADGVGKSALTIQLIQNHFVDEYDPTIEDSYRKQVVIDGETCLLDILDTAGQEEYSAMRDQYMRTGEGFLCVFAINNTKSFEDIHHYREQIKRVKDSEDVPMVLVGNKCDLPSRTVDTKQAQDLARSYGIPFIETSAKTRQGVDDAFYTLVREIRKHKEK
Sequence of KRAS G12D (P62937 whole entry): as the sequence (P62937 whole entry) above
Sequence of KRAS G13C (P01116 1-169 isoform P01116-2 G13C): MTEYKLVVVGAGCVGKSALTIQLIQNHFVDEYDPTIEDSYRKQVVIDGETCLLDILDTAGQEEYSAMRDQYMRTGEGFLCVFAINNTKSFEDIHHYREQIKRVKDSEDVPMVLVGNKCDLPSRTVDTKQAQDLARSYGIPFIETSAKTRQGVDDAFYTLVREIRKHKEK
Sequence of KRAS G13C (P62937 whole entry): as the sequence (P62937 whole entry) above
Sequence of KRAS G12S (P01116 1-169 isoform P01116-2 G12S limits assumed): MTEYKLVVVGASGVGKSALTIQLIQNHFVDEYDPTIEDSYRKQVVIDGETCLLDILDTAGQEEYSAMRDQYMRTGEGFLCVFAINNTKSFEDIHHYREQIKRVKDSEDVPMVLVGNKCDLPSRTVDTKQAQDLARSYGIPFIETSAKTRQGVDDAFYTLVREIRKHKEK
Sequence of KRAS G12S (P62937 whole entry): as the sequence (P62937 whole entry) above
Sequence of NRAS G12C (P01111 whole entry G12C): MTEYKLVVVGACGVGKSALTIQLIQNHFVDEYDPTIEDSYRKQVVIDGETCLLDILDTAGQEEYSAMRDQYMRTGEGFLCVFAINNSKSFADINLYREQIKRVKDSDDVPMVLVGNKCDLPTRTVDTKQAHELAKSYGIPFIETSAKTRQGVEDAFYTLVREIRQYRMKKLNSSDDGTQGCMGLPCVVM
Sequence of NRAS G12C (P62937 whole entry): as the sequence (P62937 whole entry) above

IC50 (NCI-H358 (K-Ras G12C); [1]) [µM] | IC50 (KRAS G12C; [2]) | IC50 (KRAS G12D; [3]) [µM] | IC50 (KRAS G12S; [4]) | IC50 (KRAS G12V; [5]) | IC50 (KRAS G13C; [6]) | IC50 (KRAS G13D; [7]) | IC50 (KRAS WT; [8]) | IC50 (NRAS G12C; [9]) | IC50 (NCI-H358 (K-Ras G12C); NCI-H358, H358, K-Ras G12C, read-out: Additional H358 Cell Viability assay data (K-Ras G12C, IC50)) [µM] | IC50 (KRAS G12C; KRAS G12C, read-out: KRAS G12C FRET data IC50) [µM] | IC50 (KRAS G13C; KRAS G13C, read-out: KRAS G13C FRET data IC50) [µM] | SMILES | IC50 (KRAS G12C; KRAS G12C FRET data, IC50) [µM] | IC50 (KRAS G12D; KRAS G12D FRET data, IC50) [µM] | IC50 (KRAS G12S; KRAS G12S FRET data, IC50) [µM] | IC50 (KRAS G12V; KRAS G12V FRET data IC50, KRAS G12V) [µM] | IC50 (KRAS G13C; KRAS G13C FRET data, IC50) [µM] | IC50 (KRAS G13D; KRAS G13D FRET data IC50, KRAS G13D) [µM] | IC50 (KRAS WT; KRAS WT FRET data IC50, KRAS WT) [µM] | IC50 (NRAS G12C; NRAS G12C FRET data IC50, NRAS G12C) [µM]
1 to 10 | 0.01 to 0.1 µM | 1 to 10 | 0.1 to 1 µM | 0.1 to 1 µM | 0.1 to 1 µM | 0.1 to 1 µM | 0.1 to 1 µM | 0.1 to 1 µM | – | – | – | CCn1c(-c2cnccc2COC)c2c3cc(ccc31)-c1cc(O)cc(c1)C[C@H](NC(=O)[C@H](C(C)C)N(C)C(=O)[C@H]1CCN(C(=O)C3COC3)C1)C(=O)N1CCC[C@H](N1)C(=O)OCC(C)(C)C2 [Example A9] | – | – | – | – | – | – | – | –
– | – | > 10 | > 10 µM | > 10 µM | – | > 10 µM | > 10 µM | > 10 µM | > 1 | 1 to 10 | > 10 | C=CC(=O)N1CC[C@H](C(=O)N(C)[C@H](C(=O)N[C@H]2C[C@H]3CN(CCCO3)c3ccc4c(c3)c(c(-c3cccnc3[C@H](C)OC)n4CC)CC(C)(C)COC(=O)[C@@H]3CCCN(N3)C2=O)C(C)C)C1 (racemic) [Example A405] | – | – | – | – | – | – | – | –
0.1 to 1 | 0.1 to 1 µM | 1 to 10 | 0.1 to 1 µM | 0.1 to 1 µM | 0.1 to 1 µM | 0.1 to 1 µM | 0.1 to 1 µM | 0.1 to 1 µM | – | – | – | CCn1c(-c2cnccc2COC)c2c3cc(ccc31)-c1cc(O)cc(c1)C[C@H](NC(=O)[C@H](C(C)C)N(C)C(=O)[C@H]1CCN(S(=O)(=O)N3CC(N)C3)C1)C(=O)N1CCC[C@H](N1)C(=O)OCC(C)(C)C2 [Example A35] | – | – | – | – | – | – | – | –
0.1 to 1 | 1 to 10 µM and > 10 µM | > 10 | 1 to 10 µM and > 10 µM | 1 to 10 µM and > 10 µM | 1 to 10 µM and > 10 µM | 1 to 10 µM and > 10 µM | 1 to 10 µM and > 10 µM | 1 to 10 µM and > 10 µM | – | – | – | CCn1c(-c2cccnc2[C@H](C)OC)c2c3cc(ccc31)-c1csc(n1)C[C@H](NC(=O)[C@H](C(C)C)N(C)C(=O)[C@H]1CCN(C(=O)OC)C1)C(=O)N1CCC[C@H](N1)C(=O)OCC(C)(C)C2 [Example A116] | – | – | – | – | – | – | – | –
1 to 10 | 0.1 to 1 µM | 1 to 10 | 1 to 10 µM | 0.1 to 1 µM | 1 to 10 µM | 1 to 10 µM | 0.1 to 1 µM | 0.1 to 1 µM | – | – | – | CCn1c(-c2cnccc2COC)c2c3cc(ccc31)-c1cc(O)cc(c1)C[C@H](NC(=O)[C@H](C(C)C)N1CCCCC1=O)C(=O)N1CCC[C@H](N1)C(=O)OCC(C)(C)C2 [Example A44] | – | – | – | – | – | – | – | –

SMILES | IC50 (NCI-H358 (K-Ras G12C); [1]) [µM] | IC50 (KRAS G12C; [2]) | IC50 (KRAS G12D; [3]) [µM] | IC50 (KRAS G12S; [4]) | IC50 (KRAS G12V; [5]) | IC50 (KRAS G13C; [6]) | IC50 (KRAS G13D; [7]) | IC50 (KRAS WT; [8]) | IC50 (NRAS G12C; [9]) | IC50 (NCI-H358 (K-Ras G12C); NCI-H358, H358, K-Ras G12C, read-out: Additional H358 Cell Viability assay data (K-Ras G12C, IC50)) [µM] | IC50 (KRAS G12C; KRAS G12C, read-out: KRAS G12C FRET data IC50) [µM] | IC50 (KRAS G13C; KRAS G13C, read-out: KRAS G13C FRET data IC50) [µM] | IC50 (KRAS G12C; KRAS G12C FRET data, IC50) [µM] | IC50 (KRAS G12D; KRAS G12D FRET data, IC50) [µM] | IC50 (KRAS G12S; KRAS G12S FRET data, IC50) [µM] | IC50 (KRAS G12V; KRAS G12V FRET data IC50, KRAS G12V) [µM] | IC50 (KRAS G13C; KRAS G13C FRET data, IC50) [µM] | IC50 (KRAS G13D; KRAS G13D FRET data IC50, KRAS G13D) [µM] | IC50 (KRAS WT; KRAS WT FRET data IC50, KRAS WT) [µM] | IC50 (NRAS G12C; NRAS G12C FRET data IC50, NRAS G12C) [µM]
CCn1c(-c2cnccc2COC)c2c3cc(ccc31)-c1cc(O)cc(c1)C[C@H](NC(=O)[C@H](C(C)C)N(C)C(=O)OC1CCOC1)C(=O)N1CCC[C@H](N1)C(=O)OCC(C)(C)C2 (stereo partly drawn) [Example A50, oxolan-3-yl-N-[(1S)-1-{[(8S,14S)-22-ethyl-4-hydroxy-21-[4-(methoxymethyl)pyridin-3-yl]-18,18-dimethyl-9,15-dioxo-16-oxa-10,22,28-triazapentacyclo[18.5.2.1^2,6.1^10,14.0^23,27]nonacosa-1(26),2,4,6(29),20,23(27),24-heptaen-8-yl]carbamoyl}-2-methylpropyl]-N-methylcarbamate] | 1 to 10 | – | – | – | – | – | – | – | – | – | – | – | 0.1 to 1 | 1 to 10 | 1 to 10 | 1 to 10 | 1 to 10 | 1 to 10 | 0.1 to 1 | 1 to 10
